Like-named read-outs stand apart in the source and are kept apart here.
Columns and labels:
[1] = molecular target: T1, Human PDE10A enzyme (Homo sapiens, UniProt Q9Y233); assay: PDE enzyme inhibition, SPA (Scintillation Proximity Assay); assay type: biochemical; details: for IC50: human PDE10A, [3H]cGMP substrate; for inhibition at 1 µM: compound at 1 μM, read-out: Percent inhibition (1 μM)
T1 construct: Human PDE10A enzyme was generated from Sf9 or COS-7 cells transfected with the full-length gene; His-tag; made in house; host or cells: Sf9 or COS-7 cells
Method: Human PDE10A enzyme was generated from Sf9 or COS-7 cells transfected with the full-length gene. Cloned enzyme was extracted from homogenized cell pellets. The extracted enzyme from Sf9 cells was partially purified using His-tag affinity column. The enzyme was stored at −70° C. until use. PDE activity was measured using a SPA (Scintillation Proximity Assay) (GE Healthcare). To evaluate the inhibitory activity, 10 μL of serial diluted compounds were incubated with 20 μL of PDE enzyme in assay buffer (50 mM HEPES-NaOH, 8.3 mM MgCl2, 1.7 mM EGTA, 0.1% BSA (pH 7.4)) for 30 min. at room temperature. Final concentration of DMSO in the assay was 1 percent as compounds were tested in duplicate in 96-well half-area plates (Corning). To start the reaction, 10 μL of substrate [3H] cGMP (25 or 50 nM; enclosed in SPA kits from GE Healthcare or purchased from PerkinElmer, respectively) was added for a final assay volume of 40 μL. After 60 min incubation at room temperature, yttrium SPA beads containing Zinc sulphate were added (20 μL at 6 mg/mL) to terminate the PDE reaction. After being settled for 60 min., assay plates were counted in a scintillation counter (PerkinElmer) to allow calculation of inhibition rate and IC50. Inhibition rate was calculated on the basis of 0% control wells with DMSO and 100% control wells without enzyme.

[2] = system: Male ICR mice; assay: Improvement of MK-801-induced prepulse inhibition (PPI) deficits; assay type: in vivo; details: 82 dB prepulse; i.p. 30 min before testing; MK-801 0.3 mg/kg s.c. (FIG. 3)
Excerpt: Male ICR mice were supplied by CLEA Japan, Inc (Japan). After arrival to the vivarium, animals were allowed a minimum of 1 week for acclimation. They were housed under a 12:12-h light/dark cycle in a temperature- and humidity-controlled laboratory and allowed food and water ad libitum. The care and use of the animals and the experimental protocols used in this research were approved by the Experimental Animal Care and Use Committee of Takeda Pharmaceutical Company, Ltd (Osaka, Japan).
The compounds were suspended in 0.5% methylcellulose in saline or distilled water, and administered by intraperitoneally (i.p.) or orally (p.o.), respectively. Methamphetamine (Dainippon Sumitomo Pharma Co., Ltd.) and MK-801 (Sigma-Aldrich, St Louis, Mo.) were dissolved in saline, and administered subcutaneously (s.c.). […]
PPI is a measure of sensorimotor gating and is one of a few neuropsychological measures in which humans and rodents can be evaluated in a similar fashion (Psychopharmacology (Berl) 2001, vol. 156: 117-154). We evaluated whether compound could reverse PPI deficits induced by MK-801 using male ICR mice. […] Placement of mice inside the cylinders allowed the whole-body startle responses induced by the acoustic stimuli to be measured via the transduction of movement into analog signals by a piezoelectric unit attached to the platform. […]

T1 sequence (Q9Y233 267-1055): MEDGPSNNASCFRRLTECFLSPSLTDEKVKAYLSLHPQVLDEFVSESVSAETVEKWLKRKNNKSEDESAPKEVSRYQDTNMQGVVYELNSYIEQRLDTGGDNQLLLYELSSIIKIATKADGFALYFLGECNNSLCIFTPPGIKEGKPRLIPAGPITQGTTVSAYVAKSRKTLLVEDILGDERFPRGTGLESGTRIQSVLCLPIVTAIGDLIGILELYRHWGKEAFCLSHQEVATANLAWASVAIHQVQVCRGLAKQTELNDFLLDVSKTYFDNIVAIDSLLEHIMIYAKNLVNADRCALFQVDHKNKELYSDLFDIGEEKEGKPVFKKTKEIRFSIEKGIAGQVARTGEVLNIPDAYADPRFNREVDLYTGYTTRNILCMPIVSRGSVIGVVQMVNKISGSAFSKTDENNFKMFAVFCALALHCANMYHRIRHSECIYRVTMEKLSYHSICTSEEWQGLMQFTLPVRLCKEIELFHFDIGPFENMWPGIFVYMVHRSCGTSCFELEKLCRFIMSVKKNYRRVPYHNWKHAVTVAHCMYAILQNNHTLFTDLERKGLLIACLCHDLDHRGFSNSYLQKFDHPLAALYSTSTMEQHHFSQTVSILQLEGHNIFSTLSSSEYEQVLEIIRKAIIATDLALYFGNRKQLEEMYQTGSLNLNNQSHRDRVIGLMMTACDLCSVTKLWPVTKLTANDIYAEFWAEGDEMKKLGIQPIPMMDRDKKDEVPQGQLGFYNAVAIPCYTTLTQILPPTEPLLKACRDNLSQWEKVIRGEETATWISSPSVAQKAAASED

Row | inhibition at 0.1 µM ([1]; Table 1, compound at 0.1 μM as noted in cell, read-out: Percent inhibition (at 0.1 μM)) | IC50 ([1]; Table 1) | melting point | inhibition at 1 µM ([1]; Table 1) | inhibition at 0.1 µM ([1]; Table 2, compound at 0.1 μM, read-out: Percent inhibition (0.1 μM)) | IC50 ([1]; Table 2) | Compound | MK-801-induced PPI deficits [2]
1 | 90% | < 0.01 µM | 199 to 200 °C | – | – | – | CS(=O)(=O)c1cccc(-n2ccc(=O)c(-c3ccnn3-c3ccccc3)n2)c1 [Example 36, 1-[3-(Methylsulfonyl)phenyl]-3-(1-phenyl-1H-pyrazol-5-yl)pyridazin-4(1H)-one] | –
2 | – | < 0.01 µM | 160 to 161 °C | 98% | – | – | O=c1ccn(-c2cccc(S(=O)(=O)c3nc4ccccc4[nH]3)c2)nc1-c1ccnn1-c1ccccc1 [Example 39, 1-[3-(1H-Benzimidazol-2-ylsulfonyl)phenyl]-3-(1-phenyl-1H-pyrazol-5-yl)pyridazin-4(1H)-one] | –
3 | – | < 0.01 µM | 139 to 141 °C | 100% | – | – | COc1cn(-c2cccc(C(F)(F)F)c2)nc(-c2ccnn2-c2ccccc2)c1=O [Example 54, 5-Methoxy-3-(1-phenyl-1H-pyrazol-5-yl)-1-[3-(trifluoromethyl)phenyl]pyridazin-4(1H)-one] | –
4 | – | < 0.01 µM | 226 to 228 °C | 101% | – | – | COc1cn(-c2ccc(N3CCOCC3)cc2F)nc(-c2ccnn2-c2ccccc2)c1=O [Example 57, 1-(2-Fluoro-4-morpholin-4-ylphenyl)-5-methoxy-3-(1-phenyl-1H-pyrazol-5-yl)pyridazin-4(1H)-one] | –
5 | – | 0.01 to 0.2 µM | 109 to 114 °C | 94% | – | – | O=c1c(OC(F)F)cn(-c2ccccc2F)nc1-c1ccnn1-c1ccccc1 [Example 64, 5-(Difluoromethoxy)-1-(2-fluorophenyl)-3-(1-phenyl-1H-pyrazol-5-yl)pyridazin-4(1H)-one] | –
6 | – | – | 189 to 194 °C | – | 104% | < 0.01 µM | COc1cn(-c2ccc(N3CCC3=O)cc2F)nc(-c2ccnn2-c2ccccc2)c1=O [Example 107, 1-[2-Fluoro-4-(2-oxoazetidin-1-yl)phenyl]-5-methoxy-3-(1-phenyl-1H-pyrazol-5-yl)pyridazin-4(1H)-one] | –
7 | – | – | – | – | – | – | Cc1nc2n(c(=O)c1CCN1CCC(c3noc4cc(F)ccc34)CC1)CCCC2 [Risperidone] | significantly reversed

Row | Compound | inhibition at 0.1 µM ([1]; Table 1, compound at 0.1 μM as noted in cell, read-out: Percent inhibition (at 0.1 μM)) | IC50 ([1]; Table 1) | melting point | inhibition at 1 µM ([1]; Table 1) | inhibition at 0.1 µM ([1]; Table 2, compound at 0.1 μM, read-out: Percent inhibition (0.1 μM)) | IC50 ([1]; Table 2) | MK-801-induced PPI deficits [2]
8 | COc1cn(-c2ccccc2F)nc(-c2ccnn2-c2ccccc2)c1=O [Example 52, 1-(2-Fluorophenyl)-5-methoxy-3-(1-phenyl-1H-pyrazol-5-yl)pyridazin-4(1H)-one] | – | < 0.01 µM | 163 to 165 °C | 99% | – | – | –
